Measured values from patent US12702644B2, “Pharmaceutical composition comprising ibuprofen and arginine” (priority 2021, dated 2026).

Legend:
[1] = tested on: RAW 264.7 (murine macrophages); assay: Superoxide anion generation (DHE fluorescence) in murine macrophages stimulated with LPS; format: cell-based; conditions: FIG. 3; LPS 25 μM/mL, 60 min; Ibu 10, 50, 100 μM alone; Arg 50 μM alone; PBS
Experimental: The selected method measures the fluorescence of DHE generated from its interaction with superoxide anion (O2^−) to determine the inhibitory effect of the different formulations on the generation of O2^− in murine macrophages that have been stimulated with LPS. This method has been selected because, as Chen et al. [Chen, J., et al. (2013). Analysis of kinetics of dihydroethidium fluorescence with superoxide using xanthine oxidase and hypoxanthine assay. […]
After this incubation, basal fluorescence was measured on a Fluoroskan Ascent plate reader, Labsystems using λex=485 nm and λem=538 nm. […] The fluorescence of the plate was then re-recorded using the same filter as in the basal condition.
For the analysis of the results, the value corresponding to the basal fluorescence for each well was subtracted from each final time value. […]
Murine macrophages were stimulated with LPS (25 μM/mL) and treated with arginine 50 μM alone or with different concentrations of alkaline hypertonic ibuprofen (10, 50, and 100 μM) in PBS saline solution. The cells were loaded with dihydroethidium (DHE) for 30 min at 37° C. and after 60 min of stimulation, normalized fluorescence was determined with the basal reading. […]

[2] = tested on: patients with cystic fibrosis; conditions: CF patients, cited from earlier work

Compound	inhibition of LPS-stimulated generation of superoxide anion [1]	FEV1 increase (average) ([2]; inhalation of 5 mL of 100 mg/mL twice daily, −8 ml after saline, difference not statistically significant) [mL]	exhaled NO ([2]; inhalation)
N=C(N)NCCC[C@H](N)C(=O)O [Arginine]	not inhibited		
CC(C)Cc1ccc(C(C)C(=O)O)cc1 (stereo not shown) [Ibuprofen]	not inhibited		
N=C(N)NCCC[C@H](N)C(=O)O [L-arginine]		56	significant increase
